Laboratory results taken from ChEMBL document CHEMBL3217615, “Novel 3,5-bis(arylidiene)-4-piperidone based monocarbonyl analogs of curcumin: anticancer activity evaluation and mode of action study” (2014).

Tests used:
Format in all cases: functional
[1] = Growth inhibition of human RXF393 cells assessed as cell growth at 10^-4 M after 48 hrs by sulforhodamine B assay; conditions: RXF 393, 48 h, read-out: Activity
[2] = Growth inhibition of human OVCAR3 cells assessed as cell growth at 10^-8 M after 48 hrs by sulforhodamine B assay; conditions: OVCAR-3, 48 h
HCT-116 [3] = assay: Growth inhibition of human HCT116 cells assessed as cell growth at 10^-6 M after 48 hrs by sulforhodamine B assay; conditions: HCT-116, 48 h, read-out: Activity
RPMI-8226 [4] = assay: Growth inhibition of human RPMI8226 cells assessed as cell growth at 10^-8 M after 48 hrs by sulforhodamine B assay; conditions: RPMI-8226, 48 h
MDA-MB-435 = assay: Growth inhibition of human MDA-MB-435 cells assessed as cell growth at 10^-4 M after 48 hrs by sulforhodamine B assay; conditions: MDA-MB-435, 48 h, read-out: Activity
A549 = assay: Growth inhibition of human A549/ATCC cells assessed as cell growth at 10^-7 M after 48 hrs by sulforhodamine B assay; conditions: A549, 48 h, read-out: Activity
NCI-H23 [5] = assay: Growth inhibition of human NCI-H23 cells assessed as cell growth at 10^-6 M after 48 hrs by sulforhodamine B assay; conditions: NCI-H23, 48 h, read-out: Activity
[6] = Growth inhibition of human HOP92 cells assessed as cell growth at 10^-8 M after 48 hrs by sulforhodamine B assay; conditions: HOP-92, 48 h
Malme-3M = assay: Growth inhibition of human MALME-3M cells assessed as cell growth at 10^-4 M after 48 hrs by sulforhodamine B assay; conditions: read-out: Activity
[7] = Growth inhibition of human UACC62 cells after 48 hrs by sulforhodamine B assay; conditions: UACC-62, 48 h
MDA-MB-468 = assay: Growth inhibition of human MDA-MB-468 cells assessed as cell growth at 10^-7 M after 48 hrs by sulforhodamine B assay; conditions: MDA-MB-468, 48 h, read-out: Activity
DU-145 = assay: Growth inhibition of human DU145 cells assessed as cell growth at 10^-7 M after 48 hrs by sulforhodamine B assay; conditions: DU-145, 48 h, read-out: Activity
[8] = Growth inhibition of human HCC2998 cells assessed as cell growth at 10^-4 M after 48 hrs by sulforhodamine B assay; conditions: HCC 2998, 48 h, read-out: Activity
[9] = Growth inhibition of human HCT15 cells assessed as cell growth at 10^-8 M after 48 hrs by sulforhodamine B assay; conditions: HCT-15, 48 h
SNB-75 = assay: Growth inhibition of human SNB75 cells assessed as cell growth at 10^-7 M after 48 hrs by sulforhodamine B assay; conditions: SNB-75, 48 h, read-out: Activity
HL-60(TB) = assay: Growth inhibition of human HL-60(TB) cells assessed as cell growth at 10^-4 M after 48 hrs by sulforhodamine B assay; conditions: HL-60, 48 h, read-out: Activity
CCRF-CEM [10] = assay: Growth inhibition of human CCRF-CEM cells assessed as cell growth at 10^-8 M after 48 hrs by sulforhodamine B assay
HCT-116 [11] = assay: Growth inhibition of human HCT116 cells after 48 hrs by sulforhodamine B assay; conditions: HCT-116, 48 h
[12] = Growth inhibition of human OVCAR8 cells assessed as cell growth at 10^-6 M after 48 hrs by sulforhodamine B assay; conditions: OVCAR-8, 48 h, read-out: Activity
CCRF-CEM [13] = assay: Growth inhibition of human CCRF-CEM cells assessed as cell growth at 10^-7 M after 48 hrs by sulforhodamine B assay; conditions: read-out: Activity
[14] = Growth inhibition of human HCC2998 cells assessed as cell growth at 10^-7 M after 48 hrs by sulforhodamine B assay; conditions: HCC 2998, 48 h, read-out: Activity
NCI-H460 = assay: Growth inhibition of human NCI-H460 cells assessed as cell growth at 10^-6 M after 48 hrs by sulforhodamine B assay; conditions: NCI-H460, 48 h, read-out: Activity
MDA-MB-231 = assay: Growth inhibition of human MDA-MB-231 cells assessed as cell growth at 10^-7 M after 48 hrs by sulforhodamine B assay; conditions: MDA-MB-231, 48 h, read-out: Activity
T47D [15] = assay: Growth inhibition of human T47D cells assessed as cell growth at 10^-8 M after 48 hrs by sulforhodamine B assay
PC-3 = assay: Growth inhibition of human PC3 cells assessed as cell growth at 10^-4 M after 48 hrs by sulforhodamine B assay; conditions: PC-3, 48 h, read-out: Activity
[16] = Growth inhibition of human LOXIMVI cells assessed as cell growth at 10^-7 M after 48 hrs by sulforhodamine B assay; conditions: LOX IMVI, read-out: Activity
T47D [17] = assay: Growth inhibition of human T47D cells assessed as cell growth at 10^-7 M after 48 hrs by sulforhodamine B assay; conditions: read-out: Activity
U-251 [18] = assay: Growth inhibition of human U251 cells assessed as cell growth at 10^-4 M after 48 hrs by sulforhodamine B assay; conditions: U-251, 48 h, read-out: Activity
NCI-H23 [19] = assay: Growth inhibition of human NCI-H23 cells assessed as cell growth at 10^-8 M after 48 hrs by sulforhodamine B assay; conditions: NCI-H23, 48 h
U-251 [20] = assay: Growth inhibition of human U251 cells assessed as cell growth at 10^-7 M after 48 hrs by sulforhodamine B assay; conditions: U-251, 48 h, read-out: Activity
RPMI-8226 [21] = assay: Growth inhibition of human RPMI8226 cells assessed as cell growth at 10^-6 M after 48 hrs by sulforhodamine B assay; conditions: RPMI-8226, 48 h, read-out: Activity
K562 = assay: Growth inhibition of human K562 cells after 48 hrs by sulforhodamine B assay; conditions: K562, 48 h
ACHN = assay: Growth inhibition of human ACHN cells assessed as cell growth at 10^-7 M after 48 hrs by sulforhodamine B assay; conditions: read-out: Activity
[22] = read-out: pLC50 (the source's name) (converted)
[23] = read-out: LC50 (the source's name)

## Cc1ccc(S(=O)(=O)N2C/C(=C\c3cc(F)cc(F)c3)C(=O)/C(=C/c3cc(F)cc(F)c3)C2)cc1
[1]
  growth at 100 µM: -95%
[2]
  GI50: 437 nM
  LC50: 4570 nM
[2]; read-out: Activity
  growth at 0.01 µM: 110%
[2]; read-out: pTGI (converted)
  TGI: 1450 nM
HCT-116 [3]
  growth at 1 µM: -32%
RPMI-8226 [4]
  GI50: 37.1 nM
RPMI-8226 [4]; read-out: Activity
  growth at 0.01 µM: 94%
RPMI-8226 [4]; [22]
  CC50: 93300 nM
RPMI-8226 [4]; read-out: pTGI (converted)
  TGI: 331 nM
MDA-MB-435
  growth at 100 µM: -83%
A549
  growth at 0.1 µM: 93%
NCI-H23 [5]
  growth at 1 µM: 77%
[6]
  GI50: 1120 nM
  LC50: 9770 nM
[6]; read-out: Activity
  growth at 0.01 µM: 72%
[6]; read-out: pTGI (converted)
  TGI: 3310 nM
Malme-3M
  growth at 100 µM: -78%
[7]
  GI50: 212 nM
  TGI: 514 nM
[7]; [23]
  CC50: 1620 nM
MDA-MB-468
  growth at 0.1 µM: 83%
DU-145
  growth at 0.1 µM: 111%
[8]
  growth at 100 µM: -95%
[9]
  GI50: 251 nM
  LC50: 30900 nM
[9]; read-out: Activity
  growth at 0.01 µM: 91%
[9]; read-out: pTGI (converted)
  TGI: 1290 nM
SNB-75
  growth at 0.1 µM: 90%
HL-60(TB)
  growth at 100 µM: -23%
CCRF-CEM [10]
  GI50: 74.1 nM
CCRF-CEM [10]; read-out: Activity
  growth at 0.01 µM: 95%
CCRF-CEM [10]; [22]
  CC50: > 100000 nM
CCRF-CEM [10]; read-out: pTGI (converted)
  TGI: 955 nM
HCT-116 [11]
  GI50: 209 nM
  TGI: 543 nM
HCT-116 [11]; [23]
  CC50: 1940 nM
[12]
  growth at 1 µM: 15%
CCRF-CEM [13]
  growth at 0.1 µM: 44%
[14]
  growth at 0.1 µM: 105%
NCI-H460
  growth at 1 µM: 45%
MDA-MB-231
  growth at 0.1 µM: 97%
T47D [15]
  GI50: 1780 nM
T47D [15]; read-out: Activity
  growth at 0.01 µM: 96%
T47D [15]; [22]
  CC50: 53700 nM
T47D [15]; read-out: pTGI (converted)
  TGI: 6030 nM
PC-3
  growth at 100 µM: -84%
[16]
  growth at 0.1 µM: 92%
T47D [17]
  growth at 0.1 µM: 101%
U-251 [18]
  growth at 100 µM: -96%
NCI-H23 [19]
  GI50: 1740 nM
  LC50: 26900 nM
NCI-H23 [19]; read-out: Activity
  growth at 0.01 µM: 98%
NCI-H23 [19]; read-out: pTGI (converted)
  TGI: 5010 nM
U-251 [20]
  growth at 0.1 µM: 80%
RPMI-8226 [21]
  growth at 1 µM: -16%
K562
  GI50: 77.2 nM
  TGI: 1370 nM
K562; [23]
  CC50: > 100000 nM
ACHN
  growth at 0.1 µM: 99%
